# Earlier results in US8613946B2, “Carotenoids of enhanced bioavailability” (ISP Investment Inc., priority 2006, dated 2013).
# Where two headings read alike, the source gives them in different places.
# [1] = classification of The Merck Index
solubility in water (statement of The PDR For Nutritional Supplements),solubility in water [1],Compound
insoluble in water,,CC(C)=CCC/C(C)=C/C=C/C(C)=C/C=C/C(C)=C/C=C/C=C(C)/C=C/C=C(C)/C=C/C=C(\C)CCC=C(C)C [lycopene]
,practically insoluble in water,CC1=C(/C=C/C(C)=C/C=C/C(C)=C/C=C/C=C(C)/C=C/C=C(C)/C=C/C2=C(C)CCCC2(C)C)C(C)(C)CCC1 [β-carotene]
,insoluble in water,CC1=C[C@H](O)CC(C)(C)[C@H]1/C=C/C(C)=C/C=C/C(C)=C/C=C/C=C(C)/C=C/C=C(C)/C=C/C1=C(C)C[C@@H](O)CC1(C)C [lutein]
,practically insoluble in water,CC1=CCCC(C)(C)C1/C=C/C(C)=C/C=C/C(C)=C/C=C/C=C(C)/C=C/C=C(C)/C=C/C1=C(C)CCCC1(C)C (stereo not drawn) [α-carotene]
